This data set is described as follows: Stability study of bulk material (stability-indicating HPLC, storage under controlled temperature and humidity). The data set is classed as physicochemical. The protocol:
The stability of crystalline polymorphic forms or solvates of rimonabant hydrochloride of the present invention may be determined using conventional quantitative analytical methods. For example the stability of crystalline polymorph forms or solvates of rimonabant hydrochloride may be determined by using accelerated stability conditions, wherein the test compounds are stored under controlled conditions of temperature and humidity over known periods of time, e.g., 40° C./75% relative humidity. Quantitative analysis of the test compounds by high performance liquid chromatography method or by X-ray powder diffraction pattern, DSC, IR or TGA, against appropriate reference standards before, during and after the storage period allows the stability of the test compound to be determined.
The stability of polymorph forms or solvate forms (Form A, B, C, D and E) of crystalline rimonabant hydrochloride bulk material and tablets was assessed by storing samples for up to 6 or 12 weeks at 25° C./60% RH or 40° C./75% RH. Changes were monitored using a stability-indicating HPLC method. Results were calculated by normalized peak area (npa). Degradants were identified by comparison of their relative retention times against impurity standards.

For the compound `Cc1c(C(=O)NN2CCCCC2)nn(-c2ccc(Cl)cc2Cl)c1-c1ccc(Cl)cc1.Cl` [Form D, N-piperidino-5-(4-chlorophenyl)-1-(2,4-dichlorophenyl)-4-methyl-3-pyrazolecarboxamide hydrochloride], the “stability (time)” value (bulk material, elevated temperatures and humidity) is given as 3 months. Moreover, under “solid state”, the “physical and chemical stability” value was “physically and chemically stable”.

The values are drawn from patent publication US20080004313A1, “Preparation of crystalline polymorphs of rimonabant hydrochloride” (priority 2006, published 2008).
